In US6500431B1, “Inhibitors of angiogenesis and tumor growth” (University of Southern California, priority 1998, dated 2002):
No end group written: not given here.

Tests used:
Type in all cases: cell-based
[1] = test system: KS Y-1 cells; assay: KS Y-1 cell proliferation assay (MTT); conditions: for KS Cell Proliferation, % of Control: 7,500 KS Y-1 cells/well; for KS Cell Proliferation, % of Control / Cell Proliferation Activity (% of control), KSY-1: 5 days, MTT; for Cell Proliferation Activity (% of control), KSY-1: concentration not printed
Experimental: (§1) To determine if Saposin B polypeptides had anti-angiogenic activity, a series of overlapping polypeptides were synthesized and tested in the KS Y-1 cell proliferation assay. The overlapping polypeptides are SEQ ID NOS:13 though 42. Cell Proliferation assays in either KS cells or fibroblast. Cells were plated in 48 well plates at equal numbers in appropriate culture medium. Cells were treated with the test compounds at various concentrations on day one, and on day 3. MTT was done on day 5. KS cells were used to represent the activated endothelial cells, while fibroblast cells represent the control cells. The results are remarkable for the lack of toxicity to the fibroblast relative to the activated endothelial cells/KS cells.

[2] = test system: T1 cells; assay: Fibroblast proliferation assay (MTT); conditions: concentration not given, 5 days
Experimental: as §1, with “MTT was done on day 5.” left out

[3] = test system: endothelial cells (HUVEC); assay: Growth inhibition of endothelial cells; conditions: Saposin C: highest concentration tested 50 μg/mL
Experimental: FIG. 1D: Activity of n-terminus decapeptide (DVCQDCIQMV; SEQ ID NO 21).
FIG. 1E: Activity of N-terminus pentapeptide (DVCQC; SEQ ID NO: 28).
(§2) By SDS-PAGE, the bacterial product was smaller than the eukaryotic protein. Because prokaryotically expressed proteins are not glycosylated, the difference in molecular weights probably represents the presence of carbohydrate in the eukaryotic protein. Recombinant proteins were then tested in KS, endothelial and control cell lines. Activity was found only in KS cell lines and endothelial cells.

[4] = test system: KS cell lines; assay: Activity of recombinant Prosaposin chains on growth of KS cell lines; conditions: Saposin C: highest concentration tested 50 μg/mL
Source text: In order to determine whether recombinant Saposin B has anti-angiogenic activity, the coding region of each of the Prosaposin chains was amplified from fibroblast cell lines and cloned into both bacterial (pGEX-KG) and eukaryotic (pcDNA 3.1His A) expression vectors.
The PCR products were digested with the respective restriction enzymes and the restriction products were inserted into the pGEX-KG vector for bacterial expression. pGEX-KG vector comprises a glutathione S transferase (GST)-tag at the […] of the insertion site so that a GST-fusion protein is expressed. The GST-tag is used to aid in purification of the recombinant protein. After elution from a glutathione-Sepharose 4B column, the GST-tagged proteins were incubated with thrombin (4 μg/ml) for 4 hr at room temperature (22-25° C.) in 50 mM Tris, pH 8.3, 3 mM CaCl2, 150 mM NaCl to cleave GST from the fusion protein. Free GST was removed from the preparation by passing the digested fusion protein through the glutathione-Sepharose 4B column.
as §2

[5] = first of two KSY-1 value columns

With IQMVTDIQTAVRTNSTF [SEQ ID NO:14] the “KS Cell Proliferation, % of Control” value ([1]; 10 μg/ml) was 89.3 % of Control, the “KS Cell Proliferation, % of Control” value ([1]; 100 μg/mL) was 60.7 % of Control and the “KS Cell Proliferation, % of Control” value ([1]; 500 μg/mL) was 28.6 % of Control.

In the case of QDCIQMV [SEQ ID NO:31, QDCIQMV], the “Cell Proliferation Activity (% of control), T1” value [2] is reported as 80 % of control, the “Cell Proliferation Activity (% of control), T1” value ([2]; first of two T1 value columns) is reported as 87 % of control and the IC50 [1] is reported as 16.6 µM. The “Cell Proliferation Activity (% of control), KSY-1” value [1, 5] was 74 % of control.

In the case of QMMMHMQPKEICALVG [SEQ ID NO:18], the “KS Cell Proliferation, % of Control” value ([1]; 10 μg/ml) is reported as 88.9 % of Control, the “KS Cell Proliferation, % of Control” value ([1]; 100 μg/mL) is reported as 86.4 % of Control and the “KS Cell Proliferation, % of Control” value ([1]; 500 μg/mL) is reported as 58.0 % of Control.

Work on “QMVTDIQTQVRTNSTF [SEQ ID NO:43, QMVTDIQTQVRTNSTF]” yielded an IC50 [1] of 14 µM.

With QPKDNGDVCQDCIQV [SEQ ID NO:13] the “KS Cell Proliferation, % of Control” value ([1]; 1 μg/mL) was 51.8 % of Control, the “KS Cell Proliferation, % of Control” value ([1]; 10 μg/ml) was 17.9 % of Control and the “KS Cell Proliferation, % of Control” value ([1]; 50 μg/mL) was 1.8 % of Control. For the same molecule, the “KS Cell Proliferation, % of Control” value ([1]; 100 μg/mL) was 1.8 % of Control and the “KS Cell Proliferation, % of Control” value ([1]; 500 μg/mL) was 1.8 % of Control.

STFVQALVEHVKEECDR [SEQ ID NO:15] was tested, and the “KS Cell Proliferation, % of Control” value ([1]; 10 μg/ml) was 101.8 % of Control, the “KS Cell Proliferation, % of Control” value ([1]; 100 μg/mL) was 60.7 % of Control and the “KS Cell Proliferation, % of Control” value ([1]; 500 μg/mL) was 28.6 % of Control.

With VCQDCIQMV [SEQ ID NO:29] the “Cell Proliferation Activity (% of control), T1” value [2] was 86 % of control, the “Cell Proliferation Activity (% of control), T1” value ([2]; first of two T1 value columns) was 95 % of control and the “Cell Proliferation Activity (% of control), KSY-1” value [1, 5] was 65 % of control. For the same molecule, the “Cell Proliferation Activity (% of control), KSY-1” value ([1]; second of two KSY-1 value columns) was 33 % of control.

“YISQYSEIAIQMMMHMQP [SEQ ID NO:17, YISQYSEIAIQMMMHMQP]” was tested, and the IC50 [1] was 20 µM, the “KS Cell Proliferation, % of Control” value ([1]; 10 μg/ml) was 96.3 % of Control and the “KS Cell Proliferation, % of Control” value ([1]; 100 μg/mL) was 86.4 % of Control. For the same molecule, the “KS Cell Proliferation, % of Control” value ([1]; 500 μg/mL) was 46.9 % of Control.

B1: Prosaposin: 70 kD glycoprotein, precursor of Saposin A, B, C and D; naturally occurring full-length (protein, listed as Homo sapiens)
chain: MYALFLLASLLGAALAGPVLGLKECTRGSAVWCQNVKTASDCGAVKHCLQTVWNKPTVKSLPCDICKDVVTAAGDMLKDNATEEEILVYLEKTCDWLPKPNMSASCKEIVDSYLPVILDIIKGEMSRPGEVCSALNLCESLQKHLAELNHQKQLESNKIPELDMTEVVAPFMANIPLLLYPQDGPRSKPQPKDNGDVCQDCIQMVTDIQTAVRTNSTFVQALVEHVKEECDRLGPGMADICKNYISQYSEIAIQMMMHMQPKEICALVGFCDEVKEMPMQTLVPAKVASKNVIPALELVEPIKKHEVPAKSDVYCEVCEFLVKEVTKLIDNNKTEKEILDAFDKMCSKLPKSLSEECQEVVDTYGSSILSILLEEVSPELVCSMLHLCSGTRLPALTVHVTQPKDGGFCEVCKKLVGYLDRNLEKNSTKQEILAALEKGCSFLPDPYQKQCDQFVAEYEPVLIEILVEVMDPSFVCLKIGACPSAHKPLLGTEKCIWGPSYWCQNTETAAQCNAVEHCKRHVWN
modifications: prosaposin
notes: 70 kD glycoprotein, precursor of Saposin A, B, C and D; naturally occurring full-length
With B1 the “activity against endothelial cells” value [3] was “no activity” and the “activity against KS cell lines” value [4] was “no activity”.

B2: Saposin C: sphingolipid-binding glycoprotein derived from Prosaposin; recombinant (protein, UniProt P07602 311-390, looked up)
Saposin-C: SDVYCEVCEFLVKEVTKLIDNNKTEKEILDAFDKMCSKLPKSLSEECQEVVDTYGSSILSILLEEVSPELVCSMLHLCSG
modifications: Saposin-C
notes: recombinant
In the case of B2, the “activity against endothelial cells” value [3] is reported as “no activity” and the “activity against KS cell lines” value [4] is reported as “no activity”.

B3: Saposin D: sphingolipid-binding glycoprotein derived from Prosaposin; recombinant (protein, UniProt P07602 405-486, looked up)
Saposin-D: DGGFCEVCKKLVGYLDRNLEKNSTKQEILAALEKGCSFLPDPYQKQCDQFVAEYEPVLIEILVEVMDPSFVCLKIGACPSAH
modifications: Saposin-D
notes: recombinant
With B3 the “activity against endothelial cells” value [3] was “no activity” and the “activity against KS cell lines” value [4] was “no activity”.

B4: Saposin A: sphingolipid-binding glycoprotein derived from Prosaposin; recombinant (protein, UniProt P07602 60-142, looked up)
Saposin-A: SLPCDICKDVVTAAGDMLKDNATEEEILVYLEKTCDWLPKPNMSASCKEIVDSYLPVILDIIKGEMSRPGEVCSALNLCESLQ
modifications: Saposin-A
notes: recombinant
For B4, the “activity against endothelial cells” value [3] was “no activity” and the “activity against KS cell lines” value [4] was “no activity”.
